Data on two molecules can be found in patent publication US20070203137A1, “New Salt” (ASTRAZENECA AB, priority 2006, published 2007).

Data set [1] is described as follows: Hygroscopicity by Dynamic Vapour Sorption Analysis (DVS). The data set is classed as physicochemical. As to conditions: 25° C. How it is done:
Dynamic Vapour Sorption Analysis (DVS)
The studies were undertaken using Dynamic Vapour Sorption Apparatus (DVS, Surface Measurement Systems, London UK). The apparatus consists of Cahn micobalance housed inside a temperature-controled cabinet. All experiments were performed at 25° C. The DVS was used to characterize the moisture uptake (w/w %) at different relative humidities (RH). Samples (5-10 mg) were weighed directly into the DSV sample cup and exposed to different relative humidities.

The nature of data set [2]: Photo stability of bulk substance (Suntest CPS+ cabinet). The note with it: 29 hours.
Method: The exposure was 250 Wh/m^2 and 1.2 million lux hours over 29 hours.

Where a name gives a salt, the structure may show the parent alone.

Regarding `N#Cc1ccc2[nH]c(O)c(-c3ccc(CN4CCOCC4)cn3)c2c1` [Citrate, 2-hydroxy-3-[5-(morpholin-4-ylmethyl)pyridin-2-yl]1H-indole-5-carbonitrile citrate], the moisture uptake amounted to 7.1 w/w % in data set [1] (40% relative humidity, citrate); 7.6 w/w % in data set [1] (60% relative humidity, citrate); 8.0 w/w % in data set [1] (80% relative humidity, citrate). For the same molecule, the “hygroscopicity compared with the hydrochloride salt” value in data set [1] (DVS) is “lower hygroscopicity”. In data set [2], the “photo stability compared with the hydrochloride salt and the free base” value was “much higher photo stability”.

As to `N#Cc1ccc2[nH]c(O)c(-c3ccc(CN4CCOCC4)cn3)c2c1` [HCl, hydrochloride salt of 2-hydroxy-3-[5-(morpholin-4-ylmethyl)pyridin-2-yl]1H-indole-5-carbonitrile, reference compound], the moisture uptake worked out at 8.7 w/w % in data set [1] (40% relative humidity), 11.5 w/w % in data set [1] (60% relative humidity) and 13.0 w/w % in data set [1] (80% relative humidity).
